Positions of bridges follow the written chain, without caps; N, C: chain ends. Non-standard residues stand in square brackets, D forms with d. Residues, ends and D or L forms follow the SMILES beside them. 2Nal = N[C@@H](Cc1ccc2ccccc2c1)C(=O)O; d2Nal = N[C@H](Cc1ccc2ccccc2c1)C(=O)O; Nle = CCCC[C@H](N)C(=O)O
Experiments:
[1] = system: rats; assay: ICV feeding studies; format: in vivo, rat; settings: lowest value of multiple tests, parentheses = decrease
Method: (§1) Change in food intake and body weight is evaluated for selected peptides. Rats with indwelling intracerebroventricular cannulas (ICV rats) are obtained from Hilltop Lab Animals, Inc. (Scottdale, Pa.). Animals are individually housed in conventional plexiglass hanging cages and maintained on a controlled 12 hour on/off light cycle. Water and powdered (LabDiet, 5P00 Prolab RMH 3000) or pelleted (Harlan Teklad 2018 18% Protein Rodent Diet) food is provided ad libitum. For 1 week before treatment, 24-hour food intake and body weight change is recorded to assess a baseline for the group during vehicle treatment. The rats are dosed ICV with vehicle or selected cyclic peptides (0.3-3 nmol). The changes in body weight and food intake for the 24 hour period after dosing are determined. The changes in body weight and food intake for the 48 hour and 72 hour periods after dosing are also measured to determine reversal of changes in body weight and food intake effects back to baseline levels.
A series of ICV feeding studies were conducted on rats. All animals were dosed on the first day with saline ICV, and given a pre-weighed food bowl with food weight recorded at 2 and 21 hours post-ICV injection. On day 2, animals were randomized based on the 21 hour food consumption, with animals eliminated due to low food consumption or food spills. […] Food weights were again recorded at 2, 4, 21 and 24 hours post-icv injection. In most instances, multiple different tests were conducted which each group containing between 8 and 12 members; the lowest value is shown below. Values are shown as percent increase (decrease) in aggregate food intake. “ND” means no test was conducted at that dose level.

[2] = target: T1, MC1-R (B-16 mouse melanoma cells) (Mus musculus, UniProt Q01727); assay: Competitive inhibition binding assay using [I125]-NDP-α-MSH, MC1-R; settings: B-16 mouse melanoma cell membranes
T1 sequence (Q01727 whole entry): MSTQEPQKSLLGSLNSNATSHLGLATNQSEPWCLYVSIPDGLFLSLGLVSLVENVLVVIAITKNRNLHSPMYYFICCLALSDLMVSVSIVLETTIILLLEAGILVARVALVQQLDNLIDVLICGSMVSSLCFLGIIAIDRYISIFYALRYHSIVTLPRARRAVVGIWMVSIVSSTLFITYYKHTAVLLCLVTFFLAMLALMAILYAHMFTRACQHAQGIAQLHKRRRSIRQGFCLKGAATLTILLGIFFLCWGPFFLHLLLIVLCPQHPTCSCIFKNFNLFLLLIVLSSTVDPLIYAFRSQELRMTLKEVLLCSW
Method: Each assay is conducted in triplicate.

[3] = target: T1, MC1-R (B-16 mouse melanoma cells); assay: cAMP assay for agonist/antagonist status, MC1-R; format: cell-based; settings: for EC50: read-out: EC50 as to MC1-R
Method: Cells are incubated with the test peptides in the presence or absence of α-MSH for 1 hour at 37° C. cAMP levels in the cell lysates are measured using the EIA kit (Amersham). Data analysis and EC50 values are determined using nonlinear regression analysis with Prism Graph-Pad software.
The agonist/antagonist status with respect to MC1-R, MC4-R and MC5-R of certain peptides of the invention is determined. Antagonistic activity is determined by measuring the inhibition of α-MSH-induced or NDP-α-MSH-induced cAMP levels following exposure to the peptides as in the preceding descriptions.

[4] = target: T2, hMC5-R (Homo sapiens, UniProt P33032); assay: Competitive inhibition binding assay using [I125]-NDP-α-MSH, hMC5-R; settings: HEK-293 membranes, read-out: Ki MC5-R
T2 construct: expressed in transfected cells; host or cells: HEK-293
T2 sequence (P33032 whole entry): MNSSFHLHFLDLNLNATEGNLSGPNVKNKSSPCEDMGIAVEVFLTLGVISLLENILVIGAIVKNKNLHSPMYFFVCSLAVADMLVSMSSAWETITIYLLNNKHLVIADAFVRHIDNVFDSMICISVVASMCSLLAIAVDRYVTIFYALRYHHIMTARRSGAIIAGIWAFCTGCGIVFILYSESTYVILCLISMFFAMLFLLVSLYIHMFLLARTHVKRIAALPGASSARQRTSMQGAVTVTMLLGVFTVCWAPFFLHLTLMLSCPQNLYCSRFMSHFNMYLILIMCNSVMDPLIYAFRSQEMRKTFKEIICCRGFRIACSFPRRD

[5] = target: T3, hMC3-R (Homo sapiens, UniProt P41968); assay: Competitive inhibition binding assay using [I125]-NDP-α-MSH, hMC3-R; settings: HEK-293 membranes, read-out: Ki MC3-R
T3 construct: expressed in transfected cells; host or cells: HEK-293
T3 sequence (P41968 whole entry): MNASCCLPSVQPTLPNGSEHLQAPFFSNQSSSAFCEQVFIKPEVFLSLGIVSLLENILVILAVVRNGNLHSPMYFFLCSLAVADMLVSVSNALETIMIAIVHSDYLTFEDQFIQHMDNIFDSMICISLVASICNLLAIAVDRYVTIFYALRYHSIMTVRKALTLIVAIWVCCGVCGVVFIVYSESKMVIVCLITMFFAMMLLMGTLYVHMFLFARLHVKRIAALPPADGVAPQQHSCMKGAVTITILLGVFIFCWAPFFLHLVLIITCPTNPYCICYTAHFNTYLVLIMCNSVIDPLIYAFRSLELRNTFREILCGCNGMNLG

[6] = target: T4, hMC4-R (HEK-293 cells) (Homo sapiens, UniProt P32245); assay: cAMP assay for agonist/antagonist status and functional antagonism, MC4-R; format: cell-based; settings: for agonist/antagonist status as to MC4-R: cAMP assay; for Kb: functional antagonism, Schild's analysis vs NDP-α-MSH, read-out: pA2 value as to MC4-R (converted)
T4 construct: expressed in transfected cells; host or cells: HEK-293
T4 sequence (P32245 whole entry): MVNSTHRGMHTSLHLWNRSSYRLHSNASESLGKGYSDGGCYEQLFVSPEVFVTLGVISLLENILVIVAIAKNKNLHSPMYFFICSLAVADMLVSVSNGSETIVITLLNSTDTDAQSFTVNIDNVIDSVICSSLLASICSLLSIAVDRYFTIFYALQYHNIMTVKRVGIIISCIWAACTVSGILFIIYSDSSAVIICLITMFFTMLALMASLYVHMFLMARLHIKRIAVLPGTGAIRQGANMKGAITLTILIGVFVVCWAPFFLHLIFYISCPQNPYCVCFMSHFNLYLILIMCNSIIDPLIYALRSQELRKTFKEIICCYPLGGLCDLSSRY
Method: Confluent HEK-293 cells over-expressing MC4-R are detached by enzyme free cell suspension buffer. […] The cells are plated in a 96 well plates at a density of 0.5×10^5 cells per well and pre-incubated for 30 minutes. The cells are then challenged with the test peptides dissolved in dimethylsulfoxide (DMSO) at a concentration range of 0.05-5000 nM in a total assay volume of 200 μL for 1 hour at 37° C. The concentration of DMSO is always held at 1% in the assay mixture. […] At the end of the incubation period the cells are disrupted by the addition of 50 μL lysis buffer from the cAMP EIA kit (Amersham). Complete rupture of the cells is ensured by pipetting the cells up and down multiple times. cAMP levels in the cell lysates are measured after appropriate dilution using the EIA kit (Amersham) method. Data analysis and EC50 values are determined by using nonlinear regression analysis with the Prism Graph-Pad software. […] Peptides with a response ratio of less than 0.1 are evaluated for antagonistic activity.
Briefly, cells are pre-incubated for 30 minutes with the test peptides at concentrations between 0.5 nM and 5000 nM. […] For Schild's analysis, the interactions are studied using at least 3 concentrations of the peptides, separated by a log unit, over a full range of the agonist (0.005-5000 nM). cAMP levels is measured in the cell lysates after appropriate dilution. Nonlinear regression analysis with the Prism Graph-Pad software is used for Schild's analysis and to obtain EC50 values. pA2 values are derived from the Schild's plot.

[7] = system: male Sprague-Dawley rats; assay: IV food intake and body weight change; format: in vivo, rat; settings: 1 mg/kg IV, 24 hour period (FIG. 1)
Method: as §1, with “peptides. Male Sprague-Dawley rats” for “peptides. Rats with indwelling intracerebroventricular cannulas (ICV rats)”, “from Taconic (Germantown, N.Y.).” for “from Hilltop Lab Animals, Inc. (Scottdale, Pa.).”, “dosed IV or IP” for “dosed ICV”, “selected” for “selected cyclic”, “peptides (0.5-3 mg/kg).” for “peptides (0.3-3 nmol).”, “to determined” for “to determine”
Briefly, male Sprague-Dawley rats (300-350 g) were individually housed in shoe box cages with a 12 hr light/dark period. Food intake and body weights were monitored for 24 hours prior to the start of the study. Rats were randomized by body weight and then dosed IV just before lights-off with the compound of Example 12 or the same volume of vehicle. A pre-weighed amount of food was provided and food intake was determined at 2, 4, 20 and 24 hours. […]

[8] = target: T5, hMC4-R (Homo sapiens, UniProt P32245); assay: Competitive inhibition binding assay using [I125]-NDP-α-MSH, hMC4-R; settings: HEK-293 membranes, read-out: Ki MC4-R
T5 construct: expressed in transfected cells; host or cells: HEK-293
T5 sequence (P32245 whole entry): as above

[9] = target: T6, hMC3-R (HEK-293 cells) (Homo sapiens, UniProt P41968); assay: cAMP assay for agonist/antagonist status and functional antagonism, MC3-R; format: cell-based; settings: for Kb: read-out: pA2 value as to MC3-R (converted)
T6 construct: expressed in transfected cells; host or cells: HEK-293
T6 sequence (P41968 whole entry): as the sequence (P41968 whole entry) above
Method: Assay for neutral antagonist.
Experimental details are similar to the analysis for agonistic activity and are described above. Briefly, cells are pre-incubated for 30 minutes with the test peptides at concentrations between 0.5 nM and 5000 nM. […] For Schild's analysis, the interactions are studied using at least 3 concentrations of the peptides, separated by a log unit, over a full range of the agonist (0.005-5000 nM). cAMP levels is measured in the cell lysates after appropriate dilution. Nonlinear regression analysis with the Prism Graph-Pad software is used for Schild's analysis and to obtain EC50 values. pA2 values are derived from the Schild's plot.

Row | Compound | Percent Increase (Decrease) In Aggregate Food Intake After ICV Administration of Peptide Compared to Vehicle (Saline) ([1]; 1 nmol) | Ki [2] | agonist/antagonist status as to MC1-R [3] | EC50 [3] | Ki [4] | Ki [5] | Percent Increase (Decrease) In Aggregate Food Intake After ICV Administration of Peptide Compared to Vehicle (Saline) ([1]; 0.3 nmol) | agonist/antagonist status as to MC4-R [6] | Kb [6] | cumulative food intake compared to vehicle [7] | Ki [8] | agonist/antagonist status as to MC3-R ([9]; cAMP assay) | EC50 ([9]; cAMP assay, read-out: EC50 as to MC3-R) | Kb [9] | agonist/antagonist status at MC1-R ([3]; peptide at 1 μM concentration)
1 | CCCC[C@H](NC(C)=O)C(=O)N[C@H]1CC(=O)NCCCC[C@@H](C(=O)O)NC(=O)[C@H](Cc2c[nH]c3ccccc23)NC(=O)[C@H](CCCNC(=N)N)NC(=O)[C@@H](Cc2ccc3ccccc3c2)NC(=O)[C@H](Cc2c[nH]cn2)NC1=O [Example 11, Ac-Nle-cyclo(-Asp-His-D-Nal 2-Arg-Trp-Lys)-OH] | 24% | 3 nM | partial agonist | 57 nM | – | – | – | – | – | – | – | – | – | – | –
2 | CCCC[C@H](NC(C)=O)C(=O)N[C@H]1CC(=O)NCCCC[C@@H](C(=O)O)NC(=O)[C@H](Cc2ccc3ccccc3c2)NC(=O)[C@H](CCCNC(=N)N)NC(=O)[C@@H](Cc2ccc3ccccc3c2)NC(=O)[C@H](Cc2c[nH]cn2)NC1=O [Example 12, Ac-Nle-cyclo(-Asp-His-D-Nal 2-Arg-Nal 2-Lys)-OH] (Ac-[Nle]DH[d2Nal]R[2Nal]K-OH; lactam 2-7) | 48% | 0.2 nM | partial agonist | 5 nM | 0.2 nM | 0.3 nM | 36% | antagonist | 7.59 nM | increase in food intake | 0.02 nM | antagonist | – | – | –
3 | CCCC[C@H](NC(C)=O)C(=O)N[C@H]1CC(=O)NCCCC[C@@H](C(=O)O)NC(=O)[C@H](Cc2ccc3ccccc3c2)NC(=O)[C@H](CCCNC(=N)N)NC(=O)[C@@H](Cc2ccc3ccccc3c2)NC(=O)[C@H](Cc2c[nH]c3ccccc23)NC1=O [Example 13, Ac-Nle-cyclo(-Asp-Trp-D-Nal 2-Arg-Nal 2-Lys)-OH] (Ac-[Nle]DW[d2Nal]R[2Nal]K-OH; lactam 2-7) | – | 119 nM | partial agonist | – | – | – | – | – | – | – | – | – | – | – | –
4 | CC(=O)N[C@H]1CC(=O)NCCCC[C@@H](C(=O)O)NC(=O)[C@H](Cc2c[nH]c3ccccc23)NC(=O)[C@H](CCCNC(=N)N)NC(=O)[C@@H](Cc2ccc3ccccc3c2)NC(=O)[C@H](Cc2c[nH]cn2)NC1=O [Example 14, Ac-cyclo(-Asp-His-D-Nal 2-Arg-Trp-Lys)-OH] | 16% | 181 nM | agonist | 4420 nM | 191 nM | 55 nM | – | antagonist | 186 nM | – | 2 nM | antagonist | 1 nM | – | –
5 | CC(=O)N[C@H]1CC(=O)NCCCC[C@@H](C(=O)O)NC(=O)[C@H](Cc2ccc3ccccc3c2)NC(=O)[C@H](CCCNC(=N)N)NC(=O)[C@@H](Cc2ccc3ccccc3c2)NC(=O)[C@H](Cc2c[nH]cn2)NC1=O [Example 15, Ac-cyclo(-Asp-His-D-Nal 2-Arg-Nal 2-Lys)-OH] (Ac-DH[d2Nal]R[2Nal]K-OH; lactam 1-6) | 32% | 143 nM | partial agonist | 2150 nM | 89 nM | 6 nM | – | antagonist | 10 nM | – | 2 nM | antagonist | – | – | –
6 | CC(=O)N[C@H]1CC(=O)NCCCC[C@@H](C(=O)O)NC(=O)[C@H](Cc2ccc3ccccc3c2)NC(=O)[C@H](CCCNC(=N)N)NC(=O)[C@@H](Cc2ccc3ccccc3c2)NC(=O)[C@H](Cc2c[nH]c3ccccc23)NC1=O [Example 16, Ac-cyclo(-Asp-Trp-D-Nal 2-Arg-Nal 2-Lys)-OH] (Ac-DW[d2Nal]R[2Nal]K-OH; lactam 1-6) | 4% | 1100 nM | partial agonist | > 1000 nM | 17 nM | 10 nM | 0% | antagonist | 3.55 nM | – | 0.1 nM | antagonist | – | – | –
7 | CCNC(=O)[C@@H]1CCCCNC(=O)C[C@H](NC(C)=O)C(=O)N[C@@H](Cc2c[nH]c3ccccc23)C(=O)N[C@H](Cc2ccc3ccccc3c2)C(=O)N[C@@H](CCCNC(=N)N)C(=O)N[C@@H](Cc2ccc3ccccc3c2)C(=O)N1 [Example 17, Ac-cyclo(-Asp-Trp-D-Nal 2-Arg-Nal 2-Lys)-NH—CH2—CH3] (Ac-DW[d2Nal]R[2Nal]K-NHEt; lactam 1-6) | 20% | 194 nM | partial agonist | > 1000 nM | 3 nM | 1 nM | 32% | antagonist | 1.74 nM | – | 0.03 nM | antagonist | – | 9.12 nM | –
8 | CC(=O)N[C@H]1CC(=O)NCCCC[C@@H](C(=O)N(C)C)NC(=O)[C@H](Cc2ccc3ccccc3c2)NC(=O)[C@H](CCCNC(=N)N)NC(=O)[C@@H](Cc2ccc3ccccc3c2)NC(=O)[C@H](Cc2c[nH]c3ccccc23)NC1=O [Example 18, Ac-cyclo(-Asp-Trp-D-Nal 2-Arg-Nal 2-Lys)-N(CH3)2] (Ac-DW[d2Nal]R[2Nal]K-NMe2; lactam 1-6) | 24% | 107 nM | inactive | – | 4 nM | 1 nM | 24% | antagonist | 2.04 nM | – | 0.03 nM | antagonist | – | 51.3 nM | –
9 | CNC(=O)[C@@H]1CCCCNC(=O)C[C@H](NC(C)=O)C(=O)N[C@@H](Cc2c[nH]c3ccccc23)C(=O)N[C@H](Cc2ccc3ccccc3c2)C(=O)N[C@@H](CCCNC(=N)N)C(=O)N[C@@H](Cc2ccc3ccccc3c2)C(=O)N1 [Example 19, Ac-cyclo(-Asp-Trp-D-Nal 2-Arg-Nal 2-Lys)-NH—CH3] (Ac-DW[d2Nal]R[2Nal]K-NHMe; lactam 1-6) | 32% | 643 nM | – | – | 6 nM | 3 nM | 28% | antagonist | 1.26 nM | – | 0.06 nM | antagonist | – | 8.51 nM | inactive

— US7342089B2, “Cyclic peptides for treatment for cachexia” (Palatin Technologies, Inc., priority 2002, dated 2008)
